Results on nine molecules are retold here after patent US9068018B2, “Methods of using voltage-gated Hv1 proton channels to detect changes in intracellular pH” (Children's Medical Center Corporation, priority 2006, dated 2015).

Experiment [1] concerns human airway epithelial cultures. As to conditions: background description; cited from earlier work.
Experiment [2] deals with T1, wt GFP-hHv1 (Homo sapiens, UniProt Q96D96).
T1 construct: expressed in transfected cells; host or cells: HEK-293 cell clone HM1 (stably expresses the human muscarinic M1 receptor)
T1 sequence (Q96D96 1-273): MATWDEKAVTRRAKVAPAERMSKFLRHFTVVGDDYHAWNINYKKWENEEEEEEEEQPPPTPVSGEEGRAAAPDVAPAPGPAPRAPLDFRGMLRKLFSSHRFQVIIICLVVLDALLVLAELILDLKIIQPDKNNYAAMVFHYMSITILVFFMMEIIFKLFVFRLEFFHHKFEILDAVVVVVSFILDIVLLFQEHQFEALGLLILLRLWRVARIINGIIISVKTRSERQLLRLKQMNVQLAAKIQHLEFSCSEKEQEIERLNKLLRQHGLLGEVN
In words: Patch-clamp currents of wt GFP-hHv1 in transfected HEK cells. The class given is cell-based. As to conditions: wild-type channel. A general note: The patch-clamp technique gives a direct electrical read-out from membranes.

For experiment [3], the target named is T2, GFP-hHv1 G199C mutant (Homo sapiens, UniProt Q96D96, G199C).
T2 construct: expressed in transfected cells; host or cells: HEK-293 cell clone HM1 (stably expresses the human muscarinic M1 receptor)
T2 sequence (Q96D96 1-273 G199C): T1 sequence (Q96D96 1-273) with G199C
Nature of the experiment: Patch-clamp currents of GFP-hHv1 G199C mutant in transfected HEK cells. The format is cell-based. To be noted: G199C mutant (engineered Cys at residue 199); FIG. 3.

Experiment [4] deals with T lymphocytes. To be noted: one day after stimulation; cited from earlier work.

Structures are written as SMILES. Numbering of substitutions follows the chain as printed.

Take `Nc1ncnc2c1ncn2[C@@H]1O[C@H](COP(=O)(O)OP(=O)(O)OP(=O)(O)O)[C@@H](O)[C@H]1O` [ATP]: the “effect on acid secretion across the epithelium” value in experiment [1] is reported as “stimulated”. With `C[N+](C)(C)CCSS(C)(=O)=O` [MTSET, 2-(trimethylammonium)methanethiosulfonate], the “effect on wt GFP-hHv1 currents” value in experiment [2] is reported as “little effect”. Moreover, the “effect on hHv1 currents” value in experiment [3] was “modulate hHv1 currents”. With `CCCCCCCCCCCCCC(=O)O[C@@H]1[C@@H](C)[C@@]2(O)[C@@H](C=C(CO)C[C@]3(O)C(=O)C(C)=C[C@@H]23)[C@@H]2C(C)(C)[C@]12OC(C)=O` [PMA, phorbol 12-myristate 13-acetate], the “increase of H+ currents in T lymphocytes” value in experiment [4] is reported as 13 fold. Take `Cc1nc2c(OCc3ccccc3)cccn2c1CC#N` [Sch-28080]: in experiment [1], the “effect on acid secretion across the epithelium” value was “not”. `[Cl-].[Cl-].[Zn+2]` [ZnCl2]: the “effect on acid secretion across the epithelium” value in experiment [1] is “inhibited”.

Turning to `N=C(N)NC(=O)c1nc(Cl)c(N)nc1N` [amiloride], the “effect on acid secretion across the epithelium” value in experiment [1] is on record as “not”. Turning to `CO/C1=C\C(C)=C\[C@@H](C)[C@@H](O)[C@@H](C)C/C(C)=C/C=C/[C@H](OC)[C@@H]([C@@H](C)[C@@H](O)[C@H](C)[C@@]2(O)C[C@@H](O)[C@H](C)[C@@H](C(C)C)O2)OC1=O` [bafilomycin A1], the “effect on acid secretion across the epithelium” value in experiment [1] is recorded as “not”. For `NCCc1c[nH]cn1` [histamine], in experiment [1], the “effect on acid secretion across the epithelium” value was “stimulated”. For the molecule `C[C@@H]1O[C@@H](O[C@H]2C[C@@H](O)[C@]3(CO)[C@H]4[C@H](O)C[C@]5(C)[C@@H](C6=CC(=O)OC6)CC[C@]5(O)[C@@H]4CC[C@]3(O)C2)[C@H](O)[C@H](O)[C@H]1O` [ouabain], in experiment [1], the “effect on acid secretion across the epithelium” value is “not”.
